Laboratory results as given in patent publication US20140023611A1 (priority 2010, published 2014).

Target: T1, rat NaP2b (SLC34A2) (Rattus norvegicus, UniProt Q9JJ09)
T1 construct: host or cells: HEK293
T1 sequence (Q9JJ09 1-695): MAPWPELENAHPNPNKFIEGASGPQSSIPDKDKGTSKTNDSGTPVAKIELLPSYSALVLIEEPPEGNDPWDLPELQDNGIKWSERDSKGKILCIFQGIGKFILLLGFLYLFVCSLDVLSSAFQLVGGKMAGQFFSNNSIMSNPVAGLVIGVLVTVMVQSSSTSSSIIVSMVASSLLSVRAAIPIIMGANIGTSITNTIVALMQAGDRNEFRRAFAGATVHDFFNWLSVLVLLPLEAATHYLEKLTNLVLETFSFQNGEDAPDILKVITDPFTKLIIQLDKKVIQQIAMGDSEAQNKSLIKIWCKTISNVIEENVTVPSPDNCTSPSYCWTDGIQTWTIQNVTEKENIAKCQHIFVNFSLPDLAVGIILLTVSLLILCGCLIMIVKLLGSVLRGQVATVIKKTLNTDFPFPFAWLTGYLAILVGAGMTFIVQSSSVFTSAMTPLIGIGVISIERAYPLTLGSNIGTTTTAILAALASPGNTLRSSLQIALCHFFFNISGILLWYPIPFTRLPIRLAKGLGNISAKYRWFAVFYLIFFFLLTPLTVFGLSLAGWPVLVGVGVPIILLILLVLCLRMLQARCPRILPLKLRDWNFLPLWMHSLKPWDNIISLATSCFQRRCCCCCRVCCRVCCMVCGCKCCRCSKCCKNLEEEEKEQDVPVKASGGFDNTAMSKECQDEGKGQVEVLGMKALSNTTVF
Assay: Inhibition of NaP2b-mediated Pi (33P) uptake in transfected HEK293 cells, rat NaP2b
Type: cell-based
Conditions: 33P Pi uptake, 0.1 mM phosphate, value given as pIC50 range
Procedure, shortened: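 HEK293 cells were transiently transfected with NaP2b cDNA using Lipofectamine and grown near confluence. Compounds were tested at twelve concentrations from 0.1 nM to 30 uM in duplicate, and 33P-phosphate uptake was counted by scintillation after lysis. Results are expressed as pIC50.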

For `CCN(CC)c1ccc(NC(=O)c2cccc(C(=O)N(C)CCO)c2)c(-c2cc(C(=O)N[C@H]3CCCc4ccccc43)ccn2)c1` [Example 194, (S)—N^1-(4-(diethylamino)-2-(4-((1,2,3,4-tetrahydronaphthalen-1-yl)carbamoyl)pyridin-2-yl)phenyl)-N^3-(2-hydroxyethyl)-N^3-methylisophthalamide], which IC50 is on record?
The IC50 was under 1 µM.

Which IC50 does the source give for `CCN(CC)c1ccc(NC(=O)c2cccc(C(=O)N(C)CCN3CCCN(C(=O)CCOCCOCCOCCOCCOCCOCCOCCOC)CC3)c2)c(-c2cc(C(=O)N[C@H]3CCCc4ccccc43)ccn2)c1` [Example 197, (S)—N^1-(2-(4-(2,5,8,11,14,17,20,23-octaoxahexacosan-26-oyl)-1,4-diazepan-1-yl)ethyl)-N^3-(4-(diethylamino)-2-(4-((1,2,3,4-tetrahydronaphthalen-1-yl)carbamoyl)pyridin-2-yl)phenyl)-N^1-methylisophthalamide] here?
The IC50 was 1 to 7.94 µM.

With `COCCOCCOCCOCCOCCOCCOCCN(C)C(=O)[C@@H]1CCCN1CCN(C)C(=O)c1cccc(C(=O)Nc2ccc(N3CCCCC3)cc2-c2cc(C(=O)N[C@H]3CCCc4ccccc43)ccn2)c1` [Example 198, N^1-(2-((S)-2-(2,5,8,11,14,17,20-heptaoxadocosan-22-yl(methyl)carbamoyl)pyrrolidin-1-yl)ethyl)-N^1-methyl-N^3-(4-(piperidin-1-yl)-2-(4-(((S)-1,2,3,4-tetrahydronaphthalen-1-yl)carbamoyl)pyridin-2-yl)phenyl)isophthalamide] as the molecule, how does the IC50 read?
The IC50 was 10 to 31.6 µM.

Which IC50 does the source give for `COCCNC(=O)N1CCN(CCN(C)C(=O)c2cccc(C(=O)Nc3ccc(N4CCCCC4)cc3-c3cc(C(=O)NCc4cccc(C(F)(F)F)c4)ccn3)c2)CC1` [Example 207, N1-(2-(4-((2-methoxyethyl)carbamoyl)piperazin-1-yl)ethyl)-N3-(2-(4-((3-(trifluoromethyl)benzyl)carbamoyl)pyridin-2-yl)-4-(piperidin-1-yl)phenyl)-N1-methylisophthalamide] here?
Its IC50 is 10 to 31.6 µM.

With `COCCNC(=O)N1CCN(CCN(C)Cc2cccc(C(=O)Nc3ccc(N4CCCCC4)cc3-c3cc(C(=O)NCc4cccc(C(F)(F)F)c4)ccn3)c2)CC1` [Example 208, N-(2-methoxyethyl)-4-(2-(methyl(3-(4-(piperidin-1-yl)-2-(4-(3-(trifluoromethyl)benzylcarbamoyl)pyridin-2-yl)phenylcarbamoyl)benzyl)amino)ethyl)piperazine-1-carboxamide] as the molecule, how does the IC50 read?
Its IC50 is 10 to 31.6 µM.

How did the IC50 turn out when `COCCN(CCOC)CCN(C)C(=O)c1cccc(C(=O)Nc2ccc(N3CCCCC3)cc2-c2cc(C(=O)N[C@H]3CCCc4ccccc43)ccn2)c1` [Example 217, (S)—N1-(2-(bis(2-methoxyethyl)amino)ethyl)-N1-methyl-N3-(4-(piperidin-1-yl)-2-(4-(1,2,3,4-tetrahydronaphthalen-1-ylcarbamoyl)pyridin-2-yl)phenyl)isophthalamide] was run?
The IC50 was under 1 µM.

Which IC50 does the source give for `COCCN(CCOCCOCCOCCC(=O)O)CCN(C)C(=O)c1cccc(C(=O)Nc2ccc(N3CCCCC3)cc2-c2cc(C(=O)N[C@H]3CCCc4ccccc43)ccn2)c1` [Example 221, 5-{2-[N-methyl-1-(3-{[4-(piperidin-1-yl)-2-(4-{[(1S)-1,2,3,4-tetrahydronaphthalen-1-yl]carbamoyl}pyridin-2-yl)phenyl]carbamoyl}phenyl)formamido]ethyl}-2,8,11,14-tetraoxa-5-azaheptadecan-17-oic acid] here?
The IC50 was 10 to 31.6 µM.

With `CCN(CC)c1ccc(NC(=O)c2cccc(C(=O)N(C)CCN(C)CCOCCOCCOCCNC(N)=O)c2)c(-c2cc(C(=O)N[C@H]3CCCc4ccccc43)ccn2)c1` [Example 224, (S)—N1-(1-amino-14-methyl-1-oxo-5,8,11-trioxa-2,14-diazahexadecan-16-yl)-N3-(4-(diethylamino)-2-(4-(1,2,3,4-tetrahydronaphthalen-1-ylcarbamoyl)pyridin-2-yl)phenyl)-N1-methylisophthalamide] as the molecule, how does the IC50 read?
Its IC50 is 1 to 7.94 µM.

How did the IC50 turn out when `CCN(CC)c1ccc(NC(=O)c2cccc(C(=O)N(C)CCN(C)CCOCCOCCOCCNC(=O)N(CCO)CCO)c2)c(-c2cc(C(=O)N[C@H]3CCCc4ccccc43)ccn2)c1` [Example 225, (S)—N1-(4-(diethylamino)-2-(4-(1,2,3,4-tetrahydronaphthalen-1-ylcarbamoyl)pyridin-2-yl)phenyl)-N3-(1-hydroxy-3-(2-hydroxyethyl)-17-methyl-4-oxo-8,11,14-trioxa-3,5,17-triazanonadecan-19-yl)-N3-methylisophthalamide] was run?
The IC50 was 10 to 31.6 µM.

Which IC50 does the source give for `COCCOCCOCCOCCOCCOCCOCCOCC(=O)N1CCN(CCN(C)C(=O)c2cccc(C(=O)Nc3ccc(N4CCCCC4)cc3-c3cc(C(=O)N[C@H]4CCCc5ccccc54)ccn3)c2)CC1` [Example 228, (S)—N1-(2-(4-2,5,8,11,14,17,20,23-octaoxapentacosanepiperazin-1-yl)ethyl)-N1-methyl-N3-(4-(piperidin-1-yl)-2-(4-(1,2,3,4-tetrahydronaphthalen-1-ylcarbamoyl)pyridin-2-yl)phenyl)isophthalamide] here?
The IC50 was 1 to 7.94 µM.

Which IC50 does the source give for `CN(CCN1C[C@H](O)C[C@H]1C(=O)N(C)CCOCCOCCOCCC(=O)OC(C)(C)C)C(=O)c1cccc(C(=O)Nc2ccc(N3CCCCC3)cc2-c2cc(C(=O)N[C@H]3CCCc4ccccc43)ccn2)c1` [Example 241] here?
Its IC50 is 1 to 7.94 µM.

Which IC50 does the source give for `CN(CCN1CCOCC1)C(=O)Nc1cccc(C(=O)Nc2ccc(N3CCCCC3)cc2-c2cc(C(=O)N[C@H]3CCCc4ccccc43)ccn2)c1` [Example 245, (S)-2-(2-(3-(3-methyl-3-(2-morpholinoethyl)ureido)benzamido)-5-(piperidin-1-yl)phenyl)-N-(1,2,3,4-tetrahydronaphthalen-1-yl)isonicotinamide] here?
Its IC50 is 10 to 31.6 µM.

For `CCN(CC)c1ccc(NC(=O)c2cccc(CCCOCCOCCOCCOCCC(=O)N3CCN(CCOCCOCCOCCOCCOCCOCCOC)C(=O)C3)c2)c(-c2cc(C(=O)NCc3cccc(C(F)(F)F)c3)ccn2)c1` [Example 258, 2-(2-(3-(16-(4-(2,5,8,11,14,17,20-heptaoxadocosan-22-yl)-3-oxopiperazin-1-yl)-16-oxo-4,7,10,13-tetraoxahexadecyl)benzamido)-5-(diethylamino)phenyl)-N-(3-(trifluoromethyl)benzyl)isonicotinamide], which IC50 is on record?
The IC50 was 1 to 7.94 µM.

Which IC50 does the source give for `CCN(CC)c1ccc(NC(=O)c2cccc(CCCOCCOCCOCCOCCC(=O)N(C)CCOCCOCCOCCOCCOCCOCCOC)c2)c(-c2cc(C(=O)NCc3cccc(C(F)(F)F)c3)ccn2)c1` [Example 259, 2-(5-(diethylamino)-2-(3-(23-methyl-24-oxo-2,5,8,11,14,17,20,27,30,33,36-undecaoxa-23-azanonatriacontan-39-yl)benzamido)phenyl)-N-(3-(trifluoromethyl)benzyl)isonicotinamide] here?
The IC50 was 1 to 7.94 µM.

For `CCN(CC)c1ccc(NC(=O)c2cccc(CCCOCCOCCOCCOCCC(=O)NCCOCCOCCOCCOCCOCCOCCOC)c2)c(-c2cc(C(=O)NCc3cccc(C(F)(F)F)c3)ccn2)c1` [Example 260, 2-(5-(diethylamino)-2-(3-(24-oxo-2,5,8,11,17,20,27,30,33,36-undecaoxa-23-azanonatriacontan-39-yl)benzamido)phenyl)-N-(3-(trifluoromethyl)benzyl)isonicotinamide], which IC50 is on record?
The IC50 was 1 to 7.94 µM.

How did the IC50 turn out when `CCN(CC)c1ccc(NC(=O)c2cccc(CCCOCCOCCOCCOCCN)c2)c(-c2cc(C(=O)NCc3cccc(C(F)(F)F)c3)ccn2)c1` [Example 270, 2-(2-(3-(1-amino-3,6,9,12-tetraoxapentadecan-15-yl)benzamido)-5-(diethylamino)phenyl)-N-(3-(trifluoromethyl)benzyl)isonicotinamide] was run?
The IC50 was 1 to 7.94 µM.

With `CCN(CC)c1ccc(NC(=O)c2cccc(CCCOCCOCCOCCOCCNS(=O)(=O)c3ccc(C(=O)N(C)CCOCCOCCOCCOCCOCCOCCOC)cc3)c2)c(-c2cc(C(=O)NCc3cccc(C(F)(F)F)c3)ccn2)c1` [Example 287, 2-(2-(3-(1-(4-(2,5,8,11,14,17,20-heptaoxadocosan-22-yl(methyl)carbamoyl)phenylsulfonamido)-3,6,9,12-tetraoxapentadecan-15-yl)benzamido)-5-(diethylamino)phenyl)-N-(3-(trifluoromethyl)benzyl)isonicotinamide] as the molecule, how does the IC50 read?
The IC50 was 1 to 7.94 µM.

`CCN(CC)c1ccc(NC(=O)c2cccc(CCCOCCOCCOCCOCCNS(=O)(=O)c3ccc(C(=O)N4CCN(CCOCCOCCOCCOCCOCCOCCOC)C(=O)C4)cc3)c2)c(-c2cc(C(=O)NCc3cccc(C(F)(F)F)c3)ccn2)c1` [Example 288, 2-(2-(3-(1-(4-(4-(2,5,8,11,14,17,20-heptaoxadocosan-22-yl)-3-oxopiperazine-1-carbonyl)phenylsulfonamido)-3,6,9,12-tetraoxapentadecan-15-yl)benzamido)-5-(diethylamino)phenyl)-N-(3-(trifluoromethyl)benzyl)isonicotinamide] was tested. Which IC50 did it give?
Its IC50 is 1 to 7.94 µM.
